Key:
[1] = system: cyclin dependent kinase 2 (CDK2); settings: MCF7 breast cancer cell lines, 30 µM; cited from earlier work
K562 cells [2] = test: Intracellular ROS by DCFDA fluorescent probe; format: cell-based, human; settings: 24 h, basal 255.09±3.69 AU
Protocol: Intracellular ROS were estimated by using the DCFDA fluorescent probe. Intracellular H2O2 and other peroxides can oxidize DCFDA to highly fluorescent compound dichlorofluorescein (DCF). K562 cells were incubated at 37°C in absence and presence of EGCG (12.5 – 100 µM) for 24 h. Cells were again incubated with 10 µM DCFDA at 37°C for an additional 30 min, and then washed twice with PBS. Finally the fluorescence intensity of DCF was measured with an excitation wavelength of 485 nm and emission wavelength of 530 nm.

K562 cells [3] = test: MTT cell viability assay; format: cell-based; settings: Homo sapiens
Protocol: Cell viability of K562 cells was quantified by MTT based colorimetric assay as described elsewhere. Briefly, cells were rinsed with PBS and 0.5 mg/ml MTT was added into each sample. The mixture was incubated at 37°C for an additional 3 h. At the end of incubation period, the medium containing MTT was removed and the pellet was dissolved in 200 µl DMSO. Absorbance was measured at a wavelength of 570 nm. Cell viability was expressed as a percentage of the control culture.
The concentration (IC50) at which the K562 cell survivability was reduced to 50% was calculated for EGCG and 3-AT by MTT based cell viability assay.

[4] = biological target: T1, cellular catalase in K562 cells (Homo sapiens, UniProt P04040); test: Inhibition of cellular catalase activity in K562 cells; format: cell-based; settings: 50 µM each, 2 hours at 37°C
T1 construct: endogenous in cells; host or cells: K562 cells
T1 sequence (P04040 2-527 limits assumed): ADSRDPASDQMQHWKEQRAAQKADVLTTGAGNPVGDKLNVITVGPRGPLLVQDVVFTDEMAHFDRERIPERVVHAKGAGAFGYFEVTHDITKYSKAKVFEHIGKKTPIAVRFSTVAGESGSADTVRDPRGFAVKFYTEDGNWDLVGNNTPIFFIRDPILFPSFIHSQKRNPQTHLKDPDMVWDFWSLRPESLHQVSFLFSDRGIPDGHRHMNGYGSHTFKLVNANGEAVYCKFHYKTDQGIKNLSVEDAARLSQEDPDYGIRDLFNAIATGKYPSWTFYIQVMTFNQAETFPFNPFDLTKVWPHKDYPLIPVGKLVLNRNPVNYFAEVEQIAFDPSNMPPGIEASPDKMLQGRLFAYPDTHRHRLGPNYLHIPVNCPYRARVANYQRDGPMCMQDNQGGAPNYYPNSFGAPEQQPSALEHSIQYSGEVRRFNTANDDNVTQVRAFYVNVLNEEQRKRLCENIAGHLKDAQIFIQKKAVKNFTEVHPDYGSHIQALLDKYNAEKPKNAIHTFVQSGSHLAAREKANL
Protocol: Estimation of cellular catalase activity was carried out by suspending K562 cells (5×10^4 for each sample) in 1 ml of PBS along with four catechins and 3-AT (50 µM each) separately and incubated at 37°C for 2 hours. Later, each sample was centrifuged and washed twice with PBS. The final pellet was suspended in 200 µl lysis buffer and kept on ice for 30 min. The lysate was then used in the same protocol used for evaluation of pure catalase activity.
(§1) On addition of catechins, a decrease in rate of H2O2 degradation i.e. a decrease in pure catalase activity was observed which is represented in Figure 6A. Catechins with galloyl moiety (ECG and EGCG) reduced catalase activity more than its non-gallated counterparts i.e. EGC and EC. However, Inhibition by EGCG is the closest to inhibition by known catalase inhibitor 3-AT.

[5] = biological target: T2, Catalase (from bovine liver) (Bos taurus, UniProt P00432); test: Inhibition of pure catalase activity (cell free), H2O2 decay at 240 nm; format: biochemical
T2 construct: Catalase (from bovine liver); purchased Sigma-Aldrich, St. Louis, MO, USA; host or cells: bovine liver
T2 sequence (P00432 2-527 limits assumed): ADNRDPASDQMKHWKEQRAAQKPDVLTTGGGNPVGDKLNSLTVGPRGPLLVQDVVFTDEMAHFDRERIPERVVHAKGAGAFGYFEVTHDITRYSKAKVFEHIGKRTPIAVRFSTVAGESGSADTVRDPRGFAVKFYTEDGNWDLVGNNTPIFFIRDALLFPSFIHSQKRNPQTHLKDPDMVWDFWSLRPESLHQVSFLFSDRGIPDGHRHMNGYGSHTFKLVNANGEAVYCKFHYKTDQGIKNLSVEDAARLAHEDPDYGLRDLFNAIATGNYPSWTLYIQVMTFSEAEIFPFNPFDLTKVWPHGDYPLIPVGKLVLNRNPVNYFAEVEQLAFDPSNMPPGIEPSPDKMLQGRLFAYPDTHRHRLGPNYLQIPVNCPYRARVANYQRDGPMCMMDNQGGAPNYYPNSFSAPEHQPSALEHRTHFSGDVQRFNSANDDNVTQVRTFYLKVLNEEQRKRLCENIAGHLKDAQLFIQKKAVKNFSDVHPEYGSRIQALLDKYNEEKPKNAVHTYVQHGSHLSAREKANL
Protocol: Absorption spectrophotometer (Varian, CARY 100 Bio, USA) was used to determine pure catalase activity (cell free). Briefly, 900 µl of H2O2 (0.036%) was taken in quartz cell of 1 cm path length and its absorbance was recorded at 240 nm. To the solution, 100 µl of catalase (50 U/ml) was added and the decrease in absorbance was recorded at 10 s interval. This experiment was performed in presence 50 µM each of four catechins and 3-AT separately to evaluate the inhibitory effect of catechins on catalase activity, after 1 h incubation.
as §1

Structure (SMILES): O=C(O[C@@H]1Cc2c(O)cc(O)cc2O[C@@H]1c1cc(O)c(O)c(O)c1)c1cc(O)c(O)c(O)c1 [EGCG, (−)-epigallocatechin gallate]
- inhibition of CDK2 [1]: inhibited
- intracellular ROS (K562 cells [2]; 12.5 µM): 298.01±4.89 AU
- intracellular ROS (K562 cells [2]; 25 µM): 320.83±4.03 AU
- intracellular ROS (K562 cells [2]; 50 µM): 354.07±4.66 AU
- intracellular ROS (K562 cells [2]; 100 µM): 442.90±7.43 AU
- IC50 (K562 cells [3]): 54.5 µM
- IC50 (K562 cells [3]; conversion of the µM value): 27 µg/mL
- inhibition of cellular catalase activity [4]: inhibited cellular catalase in K562 cancer cells
- y-intercept 1/V0 of inhibited catalase ([5]; Lineweaver-Burk plot, uninhibited 0.0081): 0.3635 min/µM
- type of inhibition (Lineweaver-Burk plot) ([5]; catalase – H2O2 reaction): uncompetitive
- order of inhibition of catalase activity ([5]; pure catalase, 50 µM each, 1 h incubation): 3-AT>EGCG>ECG>EC>EGC

— PMC4099323, “Inhibition of Catalase by Tea Catechins in Free and Cellular State: A Biophysical Approach” (PLoS ONE, 2014)
